Laboratory results reported in US20170291875A1, “QUINOLONES AS INHIBITORS OF CLASS IV BROMODOMAIN PROTEINS” (UCL BUSINESS PLC, priority 2014, published 2017).

Key:
BRPF3 = target: T1, BRPF3 (Homo sapiens, UniProt Q9ULD4); test: BROMOscan bromodomain competitive binding assay (DiscoveRx), BRPF3; conditions: BROMOscan platform, n = 2
T1 construct: purchased DiscoveRx (BROMOscan platform); host or cells: E. coli host derived from BL21 (T7 phage)
T1 sequence (Q9ULD4 589-693 limits assumed): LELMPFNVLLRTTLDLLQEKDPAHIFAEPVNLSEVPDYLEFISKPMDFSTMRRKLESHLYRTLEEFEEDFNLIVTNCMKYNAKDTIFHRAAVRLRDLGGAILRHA
Description: (§1) Compounds were tested using the commercially available BROMOscan™ Platform (DiscoveRx): http://www.discoverx.com/technologies-platforms/competitive-binding-technology/bromoscan-technology-platform/bromoscan-assay-process.
(§2) Bromodomain assays. T7 phage strains displaying bromodomains were grown in parallel in 24-well blocks in an E. coli host derived from the BL21 strain. E. coli were grown to log-phase and infected with T7 phage from a frozen stock (multiplicity of infection=0.4) and incubated with shaking at 32° C. until lysis (90-150 minutes). The lysates were centrifuged (5,000×g) and filtered (0.2 μm) to remove cell debris. […] The liganded beads were blocked with excess biotin and washed with blocking buffer (SeaBlock (Pierce), 1% BSA, 0.05% Tween 20, 1 mM DTT) to remove unbound ligand and to reduce non-specific phage binding. […] Test compounds were prepared as 1000× stocks in 100% DMSO and subsequently diluted 1:10 in monoethylene glycol (MEG) to create stocks at 100× the screening concentration (resulting stock solution is 10% DMSO/90% MEG). The compounds were then diluted directly into the assays such that the final concentration of DMSO and MEG were 0.1% and 0.9%, respectively. All reactions were performed in polystyrene 96-well plates in a final volume of 0.135 ml. […] The bromodomain concentration in the eluates was measured by qPCR.
(§3) An 11-point 3-fold serial dilution of each test compound was prepared in 100% DMSO at 1000× final test concentration. This serial is then diluted to 100× in ethylene glycol and subsequently diluted to 1× in the assay (final DMSO concentration=0.1%, Ethylene glycol concentration=0.9%). Most Kds were determined using a compound top concentration=10,000 nM.
(§4) Binding constants (Kds) were calculated with a standard dose-response curve using the Hill equation: […]
(§5) The Hill Slope was set to −1. Curves were fitted using a non-linear least square fit with the Levenberg-Marquardt algorithm.
(§6) BROMOscan™ uses the same assay technology as KINOMEscan™. For a more detailed description of this assay technology, see Fabian et al.12

BRD1 = target: T2, BRD1 (Homo sapiens, UniProt O95696); test: BROMOscan bromodomain competitive binding assay (DiscoveRx), BRD1; conditions: BROMOscan platform, n = 2
T2 construct: purchased DiscoveRx (BROMOscan platform); host or cells: E. coli host derived from BL21 (T7 phage)
T2 sequence (O95696 562-666 limits assumed): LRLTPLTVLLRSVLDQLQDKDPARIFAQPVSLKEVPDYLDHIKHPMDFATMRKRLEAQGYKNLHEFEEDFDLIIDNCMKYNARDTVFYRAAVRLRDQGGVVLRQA
Description: as §1, §2, §3, §4, §5, §6

BRD9 = target: T3, BRD9 (Homo sapiens, UniProt Q9H8M2); test: BROMOscan bromodomain competitive binding assay (DiscoveRx), BRD9; conditions: BROMOscan platform, n = 2
T3 construct: purchased DiscoveRx (BROMOscan platform); host or cells: E. coli host derived from BL21 (T7 phage)
T3 sequence (Q9H8M2 136-240 limits assumed): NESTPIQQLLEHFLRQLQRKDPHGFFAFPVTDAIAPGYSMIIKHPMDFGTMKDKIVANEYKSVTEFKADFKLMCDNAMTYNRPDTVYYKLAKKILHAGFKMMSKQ
Description: as §1, §2, §3, §4, §5, §6

BRPF1B = target: T4, BRPF1B (Homo sapiens, UniProt P55201); test: BROMOscan bromodomain competitive binding assay (DiscoveRx), BRPF1B; conditions: BROMOscan platform, n = 2 unless cell says n = 4
T4 construct: purchased DiscoveRx (BROMOscan platform); host or cells: E. coli host derived from BL21 (T7 phage)
T4 sequence (P55201 628-732 limits assumed): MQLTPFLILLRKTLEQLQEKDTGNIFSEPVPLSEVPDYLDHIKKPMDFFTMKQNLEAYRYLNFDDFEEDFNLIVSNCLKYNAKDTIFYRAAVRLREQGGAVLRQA
Description: as §1, §2, §3, §4, §5, §6

BRD7 = target: T5, BRD7 (Homo sapiens, UniProt Q9NPI1); test: BROMOscan bromodomain competitive binding assay (DiscoveRx), BRD7; conditions: BROMOscan platform, n = 2
T5 construct: purchased DiscoveRx (BROMOscan platform); host or cells: E. coli host derived from BL21 (T7 phage)
T5 sequence (Q9NPI1 131-235 limits assumed): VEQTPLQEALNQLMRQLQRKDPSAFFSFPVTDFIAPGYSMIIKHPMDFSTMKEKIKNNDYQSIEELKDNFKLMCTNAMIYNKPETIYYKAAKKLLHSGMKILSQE
Description: as §1
Bromodomain assays. T7 phage strains displaying bromodomains were grown in parallel in 24-well blocks in an E. coli host derived from the BL21 strain. E. coli were grown to log-phase and infected with T7 phage from a frozen stock (multiplicity of infection=0.4) and incubated with shaking at 32° C. until lysis (90-150 minutes). The lysates were centrifuged (5,000×g) and filtered (0.2 μm) to remove cell debris. […] The liganded beads were blocked with excess biotin and washed with blocking buffer (SeaBlock (Pierce), 1% BSA, 0.05% Tween 20, 1 mM DTT) to remove unbound ligand and to reduce non-specific phage binding. […] The bromodomain concentration in the eluates was measured by qPCR.
An 11-point 3-fold serial dilution of each test compound was prepared in 100% DMSO at 1000× final test concentration. […] Most Kds were determined using a compound top concentration=10,000 nM.
as §4

Kd (BRPF3) [nM] | Kd (BRD1) [nM] | Kd (BRD9) [nM] | Kd (BRPF1B) [nM] | Kd (BRD7) [nM] | Compound
1000 | 200 | 910 | 43 | – | Cn1c(=O)ccc2cc(NS(=O)(=O)c3ccc(C#N)cc3)ccc21 [Compound 4, 4-cyano-N-(1-methyl-2-oxo-1,2-dihydroquinolin-6-yl)benzenesulfonamide]
2200 | 520 | 2700 | 53 | – | COc1cc2c(ccc(=O)n2C)cc1NS(=O)(=O)c1ccc(C#N)cc1 [Compound 11, 4-cyano-N-(7-methoxy-1-methyl-2-oxo-1,2-dihydroquinolin-6-yl)benzenesulfonamide]
260 | 48 | 310 | 7.9 | 82 | Cc1cc2cc(NS(=O)(=O)c3ccc(C#N)cc3)ccc2n(C)c1=O [Compound 19, 4-cyano-N-(1,3-dimethyl-2-oxo-1,2-dihydroquinolin-6-yl)benzenesulfonamide]
190 | 80 | 170 | 12 | – | COc1cc2c(cc1NS(=O)(=O)c1ccc(C#N)cc1OC)cc(C)c(=O)n2C [Compound 27, 4-cyano-2-methoxy-N-(7-methoxy-1,3-dimethyl-2-oxo-1,2-dihydroquinolin-6-yl)benzenesulfonamide]
9300 | 1800 | 890 | 60 | 21000 | COc1cc2c(cc1NS(=O)(=O)c1ccc(C#N)cc1)c(C)cc(=O)n2C [Compound 33, 4-cyano-N-(7-methoxy-1,4-dimethyl-2-oxo-1,2-dihydroquinolin-6-yl)benzenesulfonamide]
